The results in this text go back to ChEMBL document CHEMBL1201862, “PubChem BioAssay data set” (2004).

Structures can show the parent of a compound that is named as a salt. Activity calls are given as the source filed them.

A short description of assay [1]: cells. It counts as functional, cell-based. Particulars: INS-1E.
The nature of assay [2]: Dose-response inhibition of insulin secretion in a rat insulinoma line at 5 mM glucose (AID 1117331). The class given is functional, cell-based. Particulars: INS-1E.
Assay [3] has as its target G-protein coupled receptor 183 (Homo sapiens, UniProt P32249). Description: SAR confirmation of small molecule antagonists of the EBI2 receptor via a luminescent beta-arrestin assa. The class given is functional.
Assay [4] in a line: Luminescence-based cell-based high throughput dose response assay to identify activators of the DAF-12 from the parasite S. stercoralis (ssDAF-12). The class given is functional.
Assay [5] deals with T1, Oxysterols receptor LXR-beta (Homo sapiens, UniProt P55055).
T1 sequence (P55055 whole entry): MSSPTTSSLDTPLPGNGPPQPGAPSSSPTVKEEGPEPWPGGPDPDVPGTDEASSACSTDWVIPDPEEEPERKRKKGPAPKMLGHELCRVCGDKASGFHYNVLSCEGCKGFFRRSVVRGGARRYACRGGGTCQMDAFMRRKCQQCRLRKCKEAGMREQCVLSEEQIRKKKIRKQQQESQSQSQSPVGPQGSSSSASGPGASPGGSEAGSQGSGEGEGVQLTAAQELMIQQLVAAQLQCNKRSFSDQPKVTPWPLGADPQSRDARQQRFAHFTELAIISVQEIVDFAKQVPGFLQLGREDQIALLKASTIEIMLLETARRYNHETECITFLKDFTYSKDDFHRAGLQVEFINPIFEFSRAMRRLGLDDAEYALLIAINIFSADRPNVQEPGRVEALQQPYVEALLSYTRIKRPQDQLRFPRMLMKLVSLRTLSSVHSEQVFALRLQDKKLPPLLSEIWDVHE
The class given is functional, cell-based.

A short description of assay [6]: cells.
Assay [7] can be described thus: HepG2 cell cytotoxicity, dose response, cytotoxicity control, ATP luminescence, cherry-pick, activator set 2 (AID 1053143). The class given is functional, cell-based.
Assay [8] has as its target T1, Oxysterols receptor LXR-beta. The assay can be described thus: LXR agonists, Gal4 luciferase reporter, dose response, counter-screen for ssDAF-12 agonist project, cell-based, luminescence, HEK293, S. stercoralis campaign (AID 720737). The class given is functional. Particulars: read-out: IC50 (the source's name).
The target of assay [9] is Paired box protein Pax-8 (Homo sapiens, UniProt Q06710). Description: inhibitors of PAX8-driven TPO luciferase reporter, dose response, RMG-I cells, cherry-pick (AID 687027).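 Note: luciferase reporter driven by Pax8 target thyroperoxidase promoter measured by SteadyGlo luminescence.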 It counts as functional, cell-based. (In a reporter assay the amount or activity of a reporter protein is the signal.)
Sequence of Paired box protein Pax-8 (Q06710 whole entry): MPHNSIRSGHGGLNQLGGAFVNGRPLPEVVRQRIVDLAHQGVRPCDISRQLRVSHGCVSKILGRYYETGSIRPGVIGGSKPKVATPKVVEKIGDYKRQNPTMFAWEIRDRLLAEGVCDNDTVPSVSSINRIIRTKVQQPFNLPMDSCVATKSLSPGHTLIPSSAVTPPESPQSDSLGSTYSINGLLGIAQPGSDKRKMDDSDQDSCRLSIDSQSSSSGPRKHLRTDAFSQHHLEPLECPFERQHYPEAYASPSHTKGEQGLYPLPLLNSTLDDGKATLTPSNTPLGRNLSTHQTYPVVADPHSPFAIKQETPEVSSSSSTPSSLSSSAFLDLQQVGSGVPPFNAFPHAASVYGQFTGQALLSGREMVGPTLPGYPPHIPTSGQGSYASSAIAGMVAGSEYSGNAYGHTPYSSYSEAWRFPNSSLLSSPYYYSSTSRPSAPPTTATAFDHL
The target in assay [10] is T2, Replicative DNA helicase DnaB (Mycobacterium tuberculosis, UniProt P9WMR3).
T2 sequence (P9WMR3 whole entry): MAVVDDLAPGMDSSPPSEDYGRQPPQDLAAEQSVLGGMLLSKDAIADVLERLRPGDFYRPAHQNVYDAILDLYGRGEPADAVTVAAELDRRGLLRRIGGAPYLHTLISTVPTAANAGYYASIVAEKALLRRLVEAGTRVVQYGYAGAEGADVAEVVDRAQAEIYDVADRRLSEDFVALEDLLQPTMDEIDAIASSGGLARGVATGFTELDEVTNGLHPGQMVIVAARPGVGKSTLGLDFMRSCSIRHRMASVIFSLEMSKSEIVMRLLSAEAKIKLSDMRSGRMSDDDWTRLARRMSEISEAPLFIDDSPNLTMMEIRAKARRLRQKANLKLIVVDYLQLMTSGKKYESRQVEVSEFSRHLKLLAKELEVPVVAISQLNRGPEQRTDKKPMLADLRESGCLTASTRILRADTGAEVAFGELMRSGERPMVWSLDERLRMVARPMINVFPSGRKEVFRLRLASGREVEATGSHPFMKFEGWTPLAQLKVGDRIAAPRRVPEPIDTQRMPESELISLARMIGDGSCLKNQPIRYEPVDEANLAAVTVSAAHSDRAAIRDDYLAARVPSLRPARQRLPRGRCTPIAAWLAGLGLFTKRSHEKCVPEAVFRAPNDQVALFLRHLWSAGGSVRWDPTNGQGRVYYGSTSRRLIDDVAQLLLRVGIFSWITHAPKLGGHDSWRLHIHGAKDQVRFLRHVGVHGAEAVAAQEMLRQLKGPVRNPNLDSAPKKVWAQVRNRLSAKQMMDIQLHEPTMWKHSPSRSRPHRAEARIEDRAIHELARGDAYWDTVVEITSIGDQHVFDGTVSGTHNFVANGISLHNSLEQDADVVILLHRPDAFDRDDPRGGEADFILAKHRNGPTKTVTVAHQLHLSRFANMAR
Description: DnaB intein splicing inhibitors, dose response, biochemical, cell-free fluorescence (AID 449749). It counts as functional.

A short description of assay [11]: cytotoxicity in OV-90 ovarian cancer cells, dose response, PAX8 inhibitor project, cell-based, plate reader, dry powder, SA8 (AID 743149). The class given is functional.
Assay [12] is described as follows: PAX5 activity inhibitors, dose response, selectivity assay for PAX8 inhibitor project, cell-based, plate reader, dry powder samples (AID 743047).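 Note: HEK293 cells carrying a Pax5 driven CD19 promoter luciferase reporter; potency of inhibitors that lower reporter luminescence.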 The class given is functional.
Assay [13] can be described thus: IOSE-T80 ovarian epithelial cell cytotoxicity, dose response, cytotoxicity control for PAX8 inhibitor project, plate reader, dry powder samples (AID 743045). The class given is functional, cell-based.
Assay [14] in a line: NIH:OVCAR-3 ovarian cancer cell cytotoxicity, dose response, PAX8 inhibitor project, plate reader, dry powder samples (AID 743044). The class given is functional, cell-based.
Assay [15] in a line: HepG2 cell cytotoxicity, dose response, cytotoxicity control for Shn3 inhibitor project, CellTiter-Glo, cherry-picked (AID 624134). The class given is functional, cell-based.
Assay [16] is described as follows: IGROV1 ovarian cancer cell cytotoxicity, dose response, PAX8 inhibitor project, plate reader, dry powder samples (AID 743043). It counts as functional, cell-based. The settings on record: IGROV-1.
The nature of assay [17]: cytotoxicity in COV434 cells, dose response, cytotoxicity control for PAX8 inhibitor project, cell-based, plate reader, dry powder, SA7 (AID 743145). It counts as functional.
Assay [18] can be described thus: cytotoxicity in OVCAR4 cells, dose response, cytotoxicity control for PAX8 inhibitor project, cell-based, plate reader, dry powder, SA11 (AID 743150). It counts as functional. The settings on record: OVCAR-4.
For assay [19], the system named is INS1. Description: beta cell apoptosis inhibitors, cytokine rescue, dose response, luminescence, retest (AID 449756).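 Note: cell death triggered by IL-1 beta plus TNF-alpha plus IFN-gamma mixture; protective hits raise ATP signal compared with cytokine alone wells.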 It counts as functional, cell-based. The settings on record: Rattus norvegicus.
Assay [20] relates to Vero. Description: cells. The class given is functional. Particulars: Chlorocebus sabaeus.
Assay [21] in a line: A2780 ovarian cancer cell cytotoxicity, dose response, cytotoxicity control, plate reader, dry powder samples (AID 743046). It counts as functional, cell-based.
The nature of assay [22]: control 3'UTR Renilla luciferase suppression, dose response, counter-screen for Shn3 inhibitor project, cell-based, Clone20-Shn3RL, cherry-picked (AID 624133). It counts as functional. A general note: The purpose of a counterscreen is to sort out artefacts and off-target activity.
Assay [23] concerns the target T3, Protein RecA (Mycobacterium tuberculosis, UniProt P9WHJ3).
T3 sequence (P9WHJ3 whole entry): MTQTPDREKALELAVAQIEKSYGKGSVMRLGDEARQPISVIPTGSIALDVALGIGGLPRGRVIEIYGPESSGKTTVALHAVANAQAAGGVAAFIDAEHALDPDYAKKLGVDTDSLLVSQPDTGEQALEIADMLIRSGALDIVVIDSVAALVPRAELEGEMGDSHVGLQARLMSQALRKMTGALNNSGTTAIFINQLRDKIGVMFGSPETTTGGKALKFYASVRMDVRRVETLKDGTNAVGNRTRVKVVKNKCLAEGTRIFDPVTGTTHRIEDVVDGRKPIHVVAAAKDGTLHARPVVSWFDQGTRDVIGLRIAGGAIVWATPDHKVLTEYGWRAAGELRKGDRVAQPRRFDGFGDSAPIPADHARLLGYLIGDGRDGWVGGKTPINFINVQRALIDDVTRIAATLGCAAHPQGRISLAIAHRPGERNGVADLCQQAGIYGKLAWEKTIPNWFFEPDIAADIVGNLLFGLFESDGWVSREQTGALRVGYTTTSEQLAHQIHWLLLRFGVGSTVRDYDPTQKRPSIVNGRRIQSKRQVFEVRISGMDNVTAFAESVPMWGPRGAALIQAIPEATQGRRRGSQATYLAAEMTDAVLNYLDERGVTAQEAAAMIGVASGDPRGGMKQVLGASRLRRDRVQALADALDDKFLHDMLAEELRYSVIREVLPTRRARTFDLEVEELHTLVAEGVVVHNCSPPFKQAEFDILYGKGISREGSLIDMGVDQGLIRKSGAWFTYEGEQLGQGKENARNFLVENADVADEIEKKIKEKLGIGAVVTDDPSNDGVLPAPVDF
The assay can be described thus: Fluorescence Cell-Free Homogeneous Dose Retest to Identify Inhibitors of RecA-Intein Splicing Activity. [Related pubchem assays (depositor defined):AID2097, AID2223, AID489010, AID492950]. The class given is functional.

Assay [24] is described as follows: Shn3 3'UTR reporter inhibitors, dose response, cell-based, Clone20 osteoblasts, firefly luciferase, cherry-picked (AID 624132).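 Note: firefly luciferase luminescence from reporter carrying the Shn3 3'UTR in osteoblasts.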 It counts as functional.
The nature of assay [25]: cytotoxicity in COV362 ovarian cancer cells, dose response, cytotoxicity control for PAX8 inhibitor project, cell-based, plate reader, dry powder, SA12 (AID 743144). The class given is functional.
A short description of assay [26]: cytotoxicity dependent on PAX8, dose response, cell-based, plate reader, dry powder (AID 743049). It counts as functional.
Assay [27] concerns the target Neurotensin receptor type 1 (Homo sapiens, UniProt P30989). The class given is functional.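 Note: Image-based confirmatory dose-response assay measuring agonist activity at NTR1; NTR1-expressing U2OS osteosarcoma cells imaged for beta-arrestin GFP spot formation; agonist potency where compounds increase beta-arrestin recruitment.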
Assay [28] addresses T4, Hepatocyte nuclear factor 4-alpha (Homo sapiens, UniProt P41235).
T4 sequence (P41235 whole entry): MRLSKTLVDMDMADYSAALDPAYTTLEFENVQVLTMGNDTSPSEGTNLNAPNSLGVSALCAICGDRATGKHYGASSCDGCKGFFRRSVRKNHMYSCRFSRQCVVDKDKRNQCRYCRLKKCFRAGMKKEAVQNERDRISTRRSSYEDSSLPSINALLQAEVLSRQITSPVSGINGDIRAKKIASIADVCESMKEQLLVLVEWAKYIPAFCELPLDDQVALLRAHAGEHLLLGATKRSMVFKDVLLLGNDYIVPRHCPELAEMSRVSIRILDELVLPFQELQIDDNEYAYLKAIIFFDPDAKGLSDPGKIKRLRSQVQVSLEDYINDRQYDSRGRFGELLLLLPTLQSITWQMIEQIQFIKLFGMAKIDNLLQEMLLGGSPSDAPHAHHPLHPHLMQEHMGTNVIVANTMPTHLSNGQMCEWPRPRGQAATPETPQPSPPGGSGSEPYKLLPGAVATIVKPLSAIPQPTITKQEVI
It counts as functional, cell-based.

Assay [29] in a line: PAX2 cell-based inhibition, dose response, selectivity assay for PAX8 inhibitor project, plate reader, dry powder samples (AID 743048).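 Note: HEK293 cells carrying a WT1 promoter luciferase reporter driven by expressed Pax2; potency is for inhibition of Pax2 driven reporter signal.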 It counts as functional.
The nature of assay [30]: Vero cell cytotoxicity, dose response, cytotoxicity control for Vif-APOBEC3G degradation inhibitor project, Vero cells (AID 1117358). It counts as functional. The settings on record: Human immunodeficiency virus 1, Vero.
Assay [31] in a line: half-maximal inhibitory concentration for glucagon-like peptide-1 release, STC-1 cell line, dose-response (AID 1117345). The class given is functional, cell-based.
Assay [32] in a line: Glucagon-like peptide 1 release potency, NCI-H716 cell line, dose-response, half-maximal inhibitory concentration (AID 1117344). The class given is functional, cell-based.

Sequence of G-protein coupled receptor 183 (P32249 whole entry): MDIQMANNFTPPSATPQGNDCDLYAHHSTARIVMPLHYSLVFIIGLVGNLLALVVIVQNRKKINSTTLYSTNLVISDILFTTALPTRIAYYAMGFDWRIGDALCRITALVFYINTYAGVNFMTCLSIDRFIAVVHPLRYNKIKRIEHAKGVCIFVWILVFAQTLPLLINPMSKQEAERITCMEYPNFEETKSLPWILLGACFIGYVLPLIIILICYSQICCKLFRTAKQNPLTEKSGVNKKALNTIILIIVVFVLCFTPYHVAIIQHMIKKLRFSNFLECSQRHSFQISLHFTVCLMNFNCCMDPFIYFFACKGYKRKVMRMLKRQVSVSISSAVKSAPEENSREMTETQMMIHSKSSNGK
Sequence of Neurotensin receptor type 1 (P30989 whole entry): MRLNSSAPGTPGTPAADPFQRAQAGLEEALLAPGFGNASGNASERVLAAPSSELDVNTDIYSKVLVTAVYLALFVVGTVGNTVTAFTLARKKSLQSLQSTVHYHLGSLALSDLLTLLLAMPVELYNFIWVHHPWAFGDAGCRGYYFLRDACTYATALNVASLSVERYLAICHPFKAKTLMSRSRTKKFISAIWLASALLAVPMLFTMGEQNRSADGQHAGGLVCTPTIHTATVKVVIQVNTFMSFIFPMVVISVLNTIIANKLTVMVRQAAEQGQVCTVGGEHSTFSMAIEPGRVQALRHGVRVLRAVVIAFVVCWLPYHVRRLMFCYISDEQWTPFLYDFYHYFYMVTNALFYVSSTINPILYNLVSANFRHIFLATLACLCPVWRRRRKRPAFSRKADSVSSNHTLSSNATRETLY

For the compound `CN1CCCN(C(c2ccccc2)c2ccc(Cl)cc2)CC1` (configuration not stated) [HOMOCHLORCYCLIZINE], the IC50 in [1] is > 33.3 µM (inactive); in assay [2], > 3.7 µM (inactive).
In the case of `O=C(/C=C/c1ccc(Br)cc1)N1CCN(Cc2cccc(F)c2)CC1`, in assay [3], the IC50 is 0.00261 µM (active).
On the same count and under the same terms, the value for `O=C(/C=C/c1ccccc1)N1CCN(Cc2ccc(F)cc2)CC1` was 0.0216 µM (active).
With `Oc1ccccc1-c1cc(-c2ccccc2)[nH]n1`, the IC50 in [4] is > 67.4 µM (inactive). The EC50 in assay [5], in assay [6] and in assay [8] was > 67.4 µM (inactive) throughout. For the same compound, the AC50 in assay [7] was 26 µM (active).
As for `CN(C)C/C=C(/c1ccc(Br)cc1)c1cccnc1` [ZIMELDINE HYDROCHLORIDE], the IC50 is > 33.3 µM (inactive) in [1] and 8.36 µM (inactive) in assay [2].
For `O=C(Nc1ccc(Cl)cc1)/C(=C/c1cccc(O)c1)c1nc2ccccc2s1`, the half-maximal activity concentration (AC50) in assay [9] is 3.92 µM (active); in [10], > 380 µM (inconclusive); in [11], 4.14 µM (active); in [12], 7.08 µM (active); in [13], 11.5 µM (active); in [14] it was 8.14 µM (active). Moreover, the AC50 in assay [15] was 9.66 µM (active); in [16] it was 30.7 µM (active); in [17], 9.35 µM (active); in assay [18], 13.7 µM (active); in [19] it was 3.7 µM (active); in assay [21], 15.1 µM (active). Also, the AC50 in [22] is 9.54 µM (active); in [24], 3.53 µM (active); in assay [25], 5.28 µM (active); in assay [26] it was 4.02 µM (active); in assay [29] it was 12.8 µM (active). The CC50 in assay [20] was 2.37 µM (active). In addition, the figures for the EC50 in assay [23] and in assay [27] were 0.481 µM (active) and 6.69 µM (active), respectively. In [28], the IC50 was 4.66 µM (active).
`Cc1ccccc1C(=O)N/N=C1/SCC(=O)N1Cc1ccccc1`: the IC50 in assay [4] is > 67.5 µM (inactive). In addition, the EC50 in assay [8] is > 67.5 µM (inactive).
For the compound `C=CCOc1ccc(Br)cc1/C=N/O`, the CC50 in [30] is 2.72 µM (active).
`CC(=O)NO` [ACETOHYDROXAMIC ACID]: the IC50 in assay [31] and in assay [32] was > 40 µM (inactive) in each case.

What is called IC50 is the concentration at which inhibition is half-maximal. What is called AC50 is the concentration giving half of the maximal activity seen. The term CC50 denotes the concentration that lowers cell viability or growth by half.
